# Data published in US20240360107A1, “AN EIF4A INHIBITOR WITH A NOVEL MECHANISM OF ACTION” (ARIZONA BOARD OF REGENTS ON BEHALF OF THE UNIVERSITY OF …, priority 2021, published 2024).
# What was measured:
# eIF4A T158V mutant = target: T1, eIF4A T158V mutant (Homo sapiens, UniProt P60842, T158V); experiment: malachite green ATPase assay, eIF4A mutant; assay type: biochemical
# T1 construct: 6xHis with TEV protease site (N, cleaved yes); made in house; host or cells: E. coli BL21-CodonPlus
# Protocol: (§1) Furthermore, T158 is predicted to form a hydrogen bond to the […] of the 6-nitro quinoline substitution of compound 28. The ability of the 6-nitro group to form two strong interactions with the binding pocket of eIF4A is the most likely explanation for why this substitution afforded 28 such a large gain in potency for compound 28 compared to other analogs in the inhibitor series. Mutagenesis and recombinant production of mutant eIF4A protein was performed to confirm the docking pose and predicted interactions between compound 28 and its eIF4A binding pocket (FIG. 6D).
# (§2) ATPase assay. Recombinant WT or mutant eIF4A was added to a clear bottom 384 well plate (Greiner) in ATPase buffer (20 mM Tris pH 7.4, 80 mM KCl, 2.5 mM MgCl2, 1 mM DTT, 1% glycerol). Compounds were added and the plate was incubated at 37° C. for 20 min. ATP/RNA solution was added to afford a 20 μL per well reaction volume with 750 nM eIF4A, 250 μM ATP, and 0.25 mg/mL Yeast RNA (Sigma) for the initial screen and dose responses, and varying concentrations of ATP and RNA for the kinetic assays. The plate was incubated for 4 h at 37° C. for the initial screen and dose responses, and at seven time points (1 hour-7 hours) for kinetic assays. 0.04% v/v (final concentration) Tween-20 was added to a Malachite Green solution, and the Malachite Green (40 μL per well) was added. The solution was incubated for 5 minutes at room temperature and Absorbance at 660 nm was read on a SpectraMax iD5 plate reader (Molecular Devices).
# eIF4A T158A mutant = target: T2, eIF4A T158A mutant (Homo sapiens, UniProt P60842, T158A); experiment: malachite green ATPase assay, eIF4A mutant; assay type: biochemical
# T2 construct: 6xHis with TEV protease site (N, cleaved yes); made in house; host or cells: E. coli BL21-CodonPlus
# Protocol: as §1, §2
# eIF4A R110L mutant = target: T3, eIF4A R110L mutant (Homo sapiens, UniProt P60842, R110L); experiment: malachite green ATPase assay, eIF4A mutant; assay type: biochemical
# T3 construct: 6xHis with TEV protease site (N, cleaved yes); made in house; host or cells: E. coli BL21-CodonPlus
# Protocol: as §1, §2
# eIF4A R110M mutant = target: T4, eIF4A R110M mutant (Homo sapiens, UniProt P60842, R110M); experiment: malachite green ATPase assay, eIF4A mutant; assay type: biochemical
# T4 construct: 6xHis with TEV protease site (N, cleaved yes); made in house; host or cells: E. coli BL21-CodonPlus
# Protocol: as §1, §2
# eIF4A R110E mutant = target: T5, eIF4A R110E mutant (Homo sapiens, UniProt P60842, R110E); experiment: malachite green ATPase assay, eIF4A mutant; assay type: biochemical
# T5 construct: 6xHis with TEV protease site (N, cleaved yes); made in house; host or cells: E. coli BL21-CodonPlus
# Protocol: as §1, §2
# eIF4A R110K mutant = target: T6, eIF4A R110K mutant (Homo sapiens, UniProt P60842, R110K); experiment: malachite green ATPase assay, eIF4A mutant; assay type: biochemical
# T6 construct: 6xHis with TEV protease site (N, cleaved yes); made in house; host or cells: E. coli BL21-CodonPlus
# Protocol: as §1, §2
# eIF4A = eIF4A (Homo sapiens, UniProt P60842); experiment: Thermal Shift Assay (TSA)/Differential Scanning Fluorimetry (DSF); assay type: binding; set-up: 6xHis with TEV protease site (N, cleaved yes); made in house; host or cells: E. coli BL21-CodonPlus; conditions: 5 μM eIF4A, 2 mM AMPPNP
# Protocol: Further evidence of this was uncovered in a thermal shift assay (TSA) using DSF with eIF4A and compound 28. […] Larger doses of compound 28 caused larger melting temperature (Tm) shifts in this assay, which argues that compound 28 is directly binding eIF4A.
# Thermal Shift Assay (TSA)/Differential Scanning Fluorimetry (DSF). TSA/DSF experiments were performed on a Lightcycler 480 II (Roche Molecular Systems). eIF4A (5 μM) in buffer (20 mM Tris (pH 7.5), 10% glycerol, 0.1 mM EDTA, 2 mM DTT, 2 mM AMPPNP, 4% DMSO) was added to 96-well PCR plates (USA Scientific, Inc.) with or without compound. After a 5 min incubation, SYPRO orange dye was added to a final concentration of 5×. Samples were melted over a gradient from 20 to 85° C. with 20 acquisitions per ° C. at a ramp rate of 0.03° C./s.
# eIF4A R311E mutant = target: T7, eIF4A R311E mutant (Homo sapiens, UniProt P60842, R311E); experiment: malachite green ATPase assay, eIF4A mutant; assay type: biochemical
# T7 construct: 6xHis with TEV protease site (N, cleaved yes); made in house; host or cells: E. coli BL21-CodonPlus
# Source text: (§3) Furthermore, eIF4A R311K and R311E mutants were produced and tested with compound 28. As expected, compound 28 had no potency toward R311E, as the positively charged arginine is replaced with a negatively charged glutamic acid that repels the carboxylic acid of compound 28. However, compound 28 also had no potency for eIF4A R311K, even though it still maintains its positive charge. This may be attributed to the inability of this lysine to simultaneously provide hydrogen bond donation and ionic interactions to compound 28 due to geometrical constraints. The molecular docking also predicted that the furan of 28 may form a hydrogen bond with T109, and the butyl group may lie within a small hydrophobic groove within the binding pocket (FIG. 6A). Nevertheless, mutations to R110, T158, and R311 causing drastic losses in potency of compound 28 provided strong evidence that this was the correct binding pocket and pose for compound 28. This site, wedged between each RecA-like domain of eIF4A, is a novel binding pocket that has never been accessed by an eIF4A inhibitor.
# (§4) ATPase assay. Recombinant WT or mutant eIF4A was added to a clear bottom 384 well plate (Greiner) in ATPase buffer (20 mM Tris pH 7.4, 80 mM KCl, 2.5 mM MgCl2, 1 mM DTT, 1% glycerol). […] The solution was incubated for 5 minutes at room temperature and Absorbance at 660 nm was read on a SpectraMax iD5 plate reader (Molecular Devices).
# eIF4A R311K mutant = target: T8, eIF4A R311K mutant (Homo sapiens, UniProt P60842, R311K); experiment: malachite green ATPase assay, eIF4A mutant; assay type: biochemical
# T8 construct: 6xHis with TEV protease site (N, cleaved yes); made in house; host or cells: E. coli BL21-CodonPlus
# Source text: as §3, §4
# T2 sequence (P60842 whole entry T158A): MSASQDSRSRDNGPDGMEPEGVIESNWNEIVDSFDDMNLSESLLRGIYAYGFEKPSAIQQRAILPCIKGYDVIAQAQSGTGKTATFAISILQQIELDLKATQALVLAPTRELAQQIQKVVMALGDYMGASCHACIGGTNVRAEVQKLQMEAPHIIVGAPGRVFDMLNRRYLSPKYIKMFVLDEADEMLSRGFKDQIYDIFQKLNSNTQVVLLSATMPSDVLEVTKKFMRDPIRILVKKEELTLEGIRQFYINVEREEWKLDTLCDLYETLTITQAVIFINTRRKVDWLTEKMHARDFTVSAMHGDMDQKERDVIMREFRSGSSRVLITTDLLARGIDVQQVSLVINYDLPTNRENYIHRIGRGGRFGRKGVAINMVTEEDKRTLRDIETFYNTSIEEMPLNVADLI
# T7 sequence (P60842 whole entry R311E): as the sequence (P60842 whole entry T158A) above, with A158T, R311E counted along it
# Chain of eIF4A (P60842 whole entry): as the sequence (P60842 whole entry T158A) above, with A158T counted along it
# T4 sequence (P60842 whole entry R110M): as the sequence (P60842 whole entry T158A) above, with R110M, A158T counted along it
# T8 sequence (P60842 whole entry R311K): as the sequence (P60842 whole entry T158A) above, with A158T, R311K counted along it
# T6 sequence (P60842 whole entry R110K): as the sequence (P60842 whole entry T158A) above, with R110K, A158T counted along it
# T3 sequence (P60842 whole entry R110L): as the sequence (P60842 whole entry T158A) above, with R110L, A158T counted along it
# T5 sequence (P60842 whole entry R110E): as the sequence (P60842 whole entry T158A) above, with R110E, A158T counted along it
# T1 sequence (P60842 whole entry T158V): as the sequence (P60842 whole entry T158A) above, with A158V counted along it
smiles,measurement,setting,value
"CCCCc1ccc(-c2ccc(-c3cc(C(=O)O)c4cc([N+](=O)[O-])ccc4n3)o2)cc1 [Compound 28, 2-(5-(4-butylphenyl)furan-2-yl)-6-nitroquinoline-4-carboxylic acid]",potency against eIF4A mutant in ATPase assay,eIF4A T158V mutant,lost all potency
same,potency against eIF4A mutant in ATPase assay,eIF4A T158A mutant,lost all potency
same,potency against eIF4A mutant in ATPase assay,eIF4A R110L mutant,lost all potency
same,potency against eIF4A mutant in ATPase assay,eIF4A R110M mutant,lost all potency
same,potency against eIF4A mutant in ATPase assay,eIF4A R110E mutant,lost all potency
same,potency against eIF4A mutant in ATPase assay,eIF4A R110K mutant,remained moderately potent
same,eIF4A thermal stability / melting temperature (TSA),eIF4A,increased eIF4A stability
same,potency against eIF4A mutant in ATPase assay,eIF4A R311E mutant,no potency
same,potency against eIF4A mutant in ATPase assay,eIF4A R311K mutant,no potency
